Results published in patent US20260226006A1, “INDOLE COMPOUND, PREPARATION METHOD THEREFOR AND USE THEREOF” (SUZHOU MERNA THERAPEUTICS CO. LTD, priority 2023, published 2026).

Experiments:
HaCat cells = experiment: m6A methylation level of human HaCat keratinocytes, EpiQuik m6A RNA methylation quantification kit (Example 20); type: cell-based; conditions: for m6A methylation level of human HaCat keratinocytes / fold induction at 0.05 µM: 50 nM drug alone; for fold induction at 0.05 µM: Homo sapiens, read-out: m6A fold change relative to control group 1; for fold induction at 0.05 µM / m6A fold change relative to control group 1: HaCat cells, 24 hours
Protocol: HaCat cells were cultured in a DMEM culture medium containing 10% fetal bovine serum, 100 U/mL penicillin, and 100 μg/mL streptomycin. Culture dishes were placed in an incubator containing 5% CO2 for culture at 37° C. for 24 hours. An equal volume of DMSO was added in control group 1, 50 nM sorafenib, capecitabine, docetaxel, and osimertinib were respectively added in control groups A, B, C, and D, and 400 nM test compounds or nicotinamide were respectively added in sample groups A1-17, B1-17, C1-17, and D1-17 after the addition of 50 nM corresponding compounds. The cells were continuously cultured for 24 hours, washed with PBS, and then collected by high-speed centrifugation. Total RNA was extracted using a Trizol reagent (Sigma Aldrich), and RNA m6A methylation of a sample was quantitatively detected using an EpiQuik m6A RNA methylation quantification kit. The concentrations of positive control samples for a standard curve were 0.01 ng/μl, 0.02 ng/μl, 0.05 ng/μl, 0.1 ng/μl, 0.2 ng/μl, and 0.5 ng/μl. The absorbance at 450 nm was read using a microplate reader (Tecan GENios). A quantitative calculation formula for m6A is as follows:
m6A (ng)=(absorbance of sample well−absorbance of background well)/slope of standard curve m6A (%)=m6A (ng)/RNA amount of sample (ng)*100%.

paw plantar skin of rats = experiment: Rat models with hand-foot skin reaction, topical ointment (Example 22); type: in vivo, SD rats; conditions: for Incidence rate (successful modeling rate for hand-foot skin reaction): modeling drug alone by gavage once daily, no ointment, SD rats; for Incidence rate (successful modeling rate for hand-foot skin reaction) / Incidence rate: 30 days
Protocol: After adaptive feeding for one week, SD rats (with a body weight of approximately 200 g) were randomly divided into groups according to the body weight, with 12 rats in each group. Modeling drugs (including sorafenib, erlotinib, afatinib, and osimertinib) were respectively dissolved in a solution containing 5% of DMSO, 45% of PEG400, and 50% of H2O, and the modeling drugs were diluted to required concentrations and then administered once daily by gavage at doses shown in Table 3. After administration by gavage for 1 hour, 0.05 g of ointments containing different mass proportions of test compounds were evenly applied to left paws of the rats, a blank matrix ointment was applied to right paws of the rats to serve as a self-control, and no ointment was applied to the rats in a blank control group. After drug application, four limbs were continuously immobilized for 2 hours, then wiped with clean water to remove the residual drugs, removed from immobilization, and restored to free movement. The modeling drugs, the blank matrix ointment, and the ointments containing the test compounds were all administered once daily. After continuous administration for 30 days, the rats were euthanized, and paw plantar skin tissues were collected, fixed in 10% neutral formalin, […]. The ointments for the test compounds were prepared by mixing the compounds, white beeswax, white petrolatum, and light liquid paraffin in specific ratios (weight ratios of 3 ointments were respectively 1:18:58:23, 3:18:57:22, and 10:20:40:30). The blank matrix ointment was prepared by mixing white beeswax, white petrolatum, and light liquid paraffin in a specific ratio (weight ratio of 18:60:22).
Tissue staining: After dewaxing and rehydration, the paw plantar skin tissue sections of the above rats were stained in a hematoxylin solution for several minutes, cleaned, and placed in 1% acid alcohol for soaking until the sections faded to light blue-red. After cleaning with running water for 5 minutes, the sections were stained with eosin for 2-3 minutes, cleaned to remove excess dyes, dehydrated, then permeabilized by adding xylene for several minutes, and sealed and fixed with a neutral resin. The stratum corneum was observed under an optical microscope, and the thickness of the epidermal stratum corneum was measured using Dmetrix software.
Immunohistochemical staining: After dewaxing and hydration, the paw plantar skin tissue sections of the above rats were incubated with 3% H2O2 at room temperature for 30 minutes and blocked with 10% goat serum for 30 minutes after antigen retrieval. A KRT1 antibody (Abcam, ab93652) and a Loricrin antibody (Abcam, ab183646) were added dropwise, the sections were incubated overnight at 4° C., and an HRP secondary antibody (ZSGB-BIO, PV-6001) and a DAB kit (ZSG-BIO, ZLI9017) were added for color development. The sections were re-stained with hematoxylin, cleaned, and sealed and fixed with a neutral resin, and the expression amounts of KRT1 and Loricrin were observed under an optical microscope.
An incidence rate calculation method involves a proportion of animals in each group meeting the above criteria for determining successful modeling, that is, incidence rate=(number of successfully modeled rats/total number of rats in the group)*100%. […]

HaCaT keratinocytes = experiment: Inhibition of HBEGF-induced differentiation of HaCaT keratinocytes, marker mRNA by RT-PCR (Example 21); type: cell-based, human; conditions: 2.5 ng/mL human recombinant HBEGF protein + test compound, 24 hours
Protocol: Human HaCaT keratinocytes were cultured in a DMEM culture medium containing 10% fetal bovine serum, 100 U/mL penicillin, and 100 µg/mL streptomycin. The cells were seeded into a 96-well plate at a density of […] and placed in an incubator containing 5% carbon dioxide for culture at 37° C. for 24 hours. An equal volume of DMSO was added into control well 1, a 2.5 ng/mL human recombinant HBEGF protein (Abcam, ab205523) was added into control well 2, and a 2.5 ng/mL human recombinant HBEGF protein and corresponding concentrations of test compounds were added into sample wells. The cells were continuously cultured for 24 hours, washed with PBS, and then collected by high-speed centrifugation. Total RNA was extracted using a Trizol reagent (Sigma Aldrich). 1 μg of RNA was reverse-transcribed into cDNA using a cDNA reverse transcription kit (Transgene Biotech, AT311-03). 1.25 μL of a primer (with a primer sequence shown in Table 2), 10 μL of an iTag Universal SYBR Green supermix (Bio-Rad, 172-S125), and an appropriate amount of DEPC ultrapure water were added to formulate 20 μL of a reaction solution to perform an RT-PCR reaction. Upon completion of the reaction, the reaction solution was subjected to agarose gel electrophoresis to determine the mRNA expression amounts of keratinocyte differentiation markers KRT1, KRT10, Loricrin, and Involucrin.

[1] = successfully modeled rats, modeling drug
[2] = 50 nM capecitabine + 400 nM test compound
[3] = 50 nM docetaxel + 400 nM test compound
[4] = 50 nM osimertinib + 400 nM test compound
[5] = 50 nM sorafenib + 400 nM test compound
[6] = paw plantar skin of modeled rats, topical ointment

SMILES: CNC(=O)c1cc(Oc2ccc(NC(=O)Nc3ccc(Cl)c(C(F)(F)F)c3)cc2)ccn1 [Sorafenib, sorafenib, reference compound]
- m6A methylation level of human HaCat keratinocytes (HaCat cells): significantly increase
- fold induction at 0.05 µM (HaCat cells): 4.5
- Incidence rate (successful modeling rate for hand-foot skin reaction) (paw plantar skin of rats): 9/12 (75%)
- Incidence rate (successful modeling rate for hand-foot skin reaction) (paw plantar skin of rats; listed as sorafenib): 75%
- KRT1 and Loricrin in tissues (immunohistochemical staining) (paw plantar skin of rats; [1]): significantly increased
- stratum corneum thickness of the paw plantar skin (paw plantar skin of rats; [1]): significantly higher than that of normal rats

SMILES: C=CC(=O)Nc1cc(Nc2nccc(-c3cn(C)c4ccccc34)n2)c(OC)cc1N(C)CCN(C)C [Osimertinib, osimertinib, reference compound]
- m6A methylation level of human HaCat keratinocytes (HaCat cells): significantly increase
- fold induction at 0.05 µM (HaCat cells): 4.8
- KRT1 and Loricrin in tissues (immunohistochemical staining) (paw plantar skin of rats; rat, in vivo): significantly increased
- stratum corneum thickness of the paw plantar skin (paw plantar skin of rats; rat, in vivo): significantly higher than that of normal rats

SMILES: NC(=O)c1cccnc1 [Nicotinamide, nicotinamide]
- m6A fold change relative to control group 1 (HaCat cells; [2]): 4.5
- m6A fold change relative to control group 1 (HaCat cells; [3]): 5.4
- m6A fold change relative to control group 1 (HaCat cells; [4]): 5.0
- m6A fold change relative to control group 1 (HaCat cells; [5]): 4.7

SMILES: NC(=O)[C@H]1CCCc2c1[nH]c1ccc(Cl)cc21 [Compound 2b, (S)-6-chloro-2,3,4,9-tetrahydro-1H-carbazole-1-carboxamide]
- abnormal increase in the RNA m6A level of human keratinocytes caused by chemotherapeutic drugs and multikinase inhibitors (HaCat cells; 400 nM compound after 50 nM drug): effectively inhibit
- m6A fold change relative to control group 1 (HaCat cells; [2]): 1.1
- m6A fold change relative to control group 1 (HaCat cells; [3]): 1.0
- m6A fold change relative to control group 1 (HaCat cells; [4]): 1.2
- m6A fold change relative to control group 1 (HaCat cells; [5]): 1.4
- mRNA expression amounts of HaCaT differentiation markers KRT1, KRT10, Loricrin, and Involucrin (HaCaT keratinocytes): significantly inhibited
- Incidence rate (paw plantar skin of rats; afatinib 50 mg/kg, 1% compound ointment on left paw, left paw): 3/12 (25%)
- Incidence rate (paw plantar skin of rats; afatinib 50 mg/kg, 1% compound ointment on left paw, right paw (blank matrix ointment)): 9/12 (75%)
- Incidence rate (paw plantar skin of rats; afatinib 50 mg/kg, 3% compound ointment on left paw, left paw): 2/12 (17%)
- Incidence rate (paw plantar skin of rats; afatinib 50 mg/kg, 3% compound ointment on left paw, right paw (blank matrix ointment)): 4/12 (33%)
- Incidence rate (paw plantar skin of rats; afatinib 50 mg/kg, 10% compound ointment on left paw, left paw): 0/12 (0%)
- Incidence rate (paw plantar skin of rats; afatinib 50 mg/kg, 10% compound ointment on left paw, right paw (blank matrix ointment)): 3/12 (25%)
- incidence rate of hand-foot skin reaction at a drug application site (paw plantar skin of rats; compounds at a mass content of 1% in ointment): significantly decrease
- incidence rate of hand-foot skin reaction in all paws of the rats (paw plantar skin of rats; compounds at mass contents of 3% and 10% in ointment): significantly decrease
- Incidence rate (paw plantar skin of rats; erlotinib 70 mg/kg, 1% compound ointment on left paw, left paw): 3/12 (25%)
- Incidence rate (paw plantar skin of rats; erlotinib 70 mg/kg, 1% compound ointment on left paw, right paw (blank matrix ointment)): 10/12 (83%)
- Incidence rate (paw plantar skin of rats; erlotinib 70 mg/kg, 3% compound ointment on left paw, left paw): 2/12 (17%)
- Incidence rate (paw plantar skin of rats; erlotinib 70 mg/kg, 3% compound ointment on left paw, right paw (blank matrix ointment)): 5/12 (42%)
- Incidence rate (paw plantar skin of rats; erlotinib 70 mg/kg, 10% compound ointment on left paw, left paw): 1/12 (8%)
- Incidence rate (paw plantar skin of rats; erlotinib 70 mg/kg, 10% compound ointment on left paw, right paw (blank matrix ointment)): 4/12 (33%)
- Incidence rate (paw plantar skin of rats; osimertinib 60 mg/kg, 1% compound ointment on left paw, left paw): 2/12 (17%)
- Incidence rate (paw plantar skin of rats; osimertinib 60 mg/kg, 1% compound ointment on left paw, right paw (blank matrix ointment)): 8/12 (67%)
- Incidence rate (paw plantar skin of rats; osimertinib 60 mg/kg, 3% compound ointment on left paw, left paw): 2/12 (17%)
- Incidence rate (paw plantar skin of rats; osimertinib 60 mg/kg, 3% compound ointment on left paw, right paw (blank matrix ointment)): 4/12 (33%)
- Incidence rate (paw plantar skin of rats; osimertinib 60 mg/kg, 10% compound ointment on left paw, left paw): 0/12 (0%)
- Incidence rate (paw plantar skin of rats; osimertinib 60 mg/kg, 10% compound ointment on left paw, right paw (blank matrix ointment)): 3/12 (25%)
- formation of blisters, inflammatory cell infiltration in the dermis and skin congestion (pathological scoring) (paw plantar skin of rats; [6]): effectively improve
- formation of blisters, inflammatory cell infiltration in the dermis and skin congestion (tissue staining) (paw plantar skin of rats; [6]): effectively improve
- Incidence rate (paw plantar skin of rats; sorafenib 100 mg/kg, 1% compound ointment on left paw, left paw): 2/12 (17%)
- Incidence rate (paw plantar skin of rats; sorafenib 100 mg/kg, 1% compound ointment on left paw, right paw (blank matrix ointment)): 9/12 (75%)
- Incidence rate (paw plantar skin of rats; sorafenib 100 mg/kg, 3% compound ointment on left paw, left paw): 2/12 (17%)
- Incidence rate (paw plantar skin of rats; sorafenib 100 mg/kg, 3% compound ointment on left paw, right paw (blank matrix ointment)): 4/12 (33%)
- Incidence rate (paw plantar skin of rats; sorafenib 100 mg/kg, 10% compound ointment on left paw, left paw): 0/12 (0%)
- Incidence rate (paw plantar skin of rats; sorafenib 100 mg/kg, 10% compound ointment on left paw, right paw (blank matrix ointment)): 4/12 (33%)
- differentiation of keratinocytes both in vitro and in vivo (paw plantar skin of rats; summary of Examples 21 and 22): effectively inhibit
- stratum corneum thickness of the paw plantar skin of the modeled rats (paw plantar skin of rats; topical ointment, modeled rats): effectively decrease
